Each structure is given as a SMILES string. A value given as a limit tells only on which side of the number the result lay.

T1 sequence (P01116 1-188 isoform P01116-2 G12D): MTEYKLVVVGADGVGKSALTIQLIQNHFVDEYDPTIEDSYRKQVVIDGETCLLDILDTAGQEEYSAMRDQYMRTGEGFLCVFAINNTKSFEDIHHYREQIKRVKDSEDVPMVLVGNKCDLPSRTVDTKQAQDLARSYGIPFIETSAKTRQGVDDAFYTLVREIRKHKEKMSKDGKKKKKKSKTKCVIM

One assay concerns the target T1, KRAS in AGS cells (KRAS G12D mutant cell line) or LS180 cells (KRAS G12D mutant cell line) (Homo sapiens, UniProt P01116, G12D).
T1 construct: CRL-187 (LS180) (so in the source); host or cells: AGS or LS180 cells
Briefly: KRAS Western Blot (WB) assay. The format is cell-based. Conditions: KRAS degradation, 24 hours incubation, normalized to β-actin. Here is the method: Day 1. Seeded AGS cells (KRAS G12D mutant cell line, ATCC, CRL-1739) or LS180 cells (KRAS G12D mutant cell line, ATCC, CRL-187) into 6-well plates (cell density: 3×10^5 cells/well/2 ml medium) in Ham's F-12 medium (Invitrogen, 11765-054) or Eagle's Minimum Essential Medium (ATCC, 30-2003) and incubated overnight at 37° C. and 5% CO2.
Day 2. Aspirated 1 ml medium from each well and added 1 ml medium containing DMSO or test compound into the well to achieve the desired final concentration. Mixed well by gentle shaking and incubated for 24 hours.
Day 3. Aspirated media from plates; washed cells with 2 ml 4° C. PBS (Solarbio, P1020-500) and aspirated the PBS. Then added 100 μl 4° C. […] lysis buffer (Boston BioProducts BP-115D) with protease and phosphatase inhibitors at vendor recommended concentrations (Roche 05892791001 and 04906837001) into each well to lyse the cells, and incubated for 20 minutes at 4° C. Cell lysate was collected into 1.5 ml Eppendorf tube, and the lysate was sonicated at 4° C. for 2 minutes (5 second pulse at 30% power with 10 second intermissions). The lysate was centrifuged at 12,000 rpm for 15 minutes at 4° C. The supernatant was transferred to a fresh Eppendorf tube, and protein concentration was quantified using a BCA kit (Solarbio, PC0020-500). Mixed the cell lysate and 5×NuPAGE SDS Loading Buffer (Beyotime, P0015L), and heated at 95° C. for 10 minutes in a heat block. Prepared samples were stored at −80° C. until SDS-PAGE procedure.
Day 4. Loaded 15 μg protein from each sample onto NuPAGE® Novex 4-12% Bis-Tris Midi Gel, 26 W (Invitrogen, WG1403BOX) and ran the gel at 120V for 1.5 hours in 1×NuPAGE® MOPS SDS Running Buffer (Novex, NP0001). Electrotransferred to nitrocellulose membrane using dry transfer method (iBlot 2 Transfer Stacks, nitrocellulose, IB23001) with a program consisting of 20V for 1 minute, 23V for 4 minutes and 25V for 2 minutes. Blocked the membrane with 5% BSA (Solarbio, A8020) in 1×TBST (CST, 9997S) for 1 hour at room temperature. Incubated with KRAS antibody (LSBio, LS-C175665, clone 2C1) at 1:1000 dilution and β-actin antibody at 1:1000 dilution (CST, 4970S) in TBST containing 1% BSA (Solarbio, A8020) at 4° C. overnight.
Day 5. Washed nitrocellulose membrane three times with 1×TBST for 10 minutes each at room temperature. Incubated with fluorescently labeled secondary antibodies at 1:5000 dilution in TBST containing 1% BSA (anti-rabbit IgG, Licor, 926-32211; anti-mouse IgG, LI-COR, 926-68070) for 1 hour at room temperature. Washed membrane three times with TBST, 10 minutes each. Scanned the membrane on LiCOR scanner for fluorescent signal(s) and quantified KRAS bands and β-actin bands for normalization.
The data are reported in Table 2, wherein “A” indicates a DC50 of less than 1 μM; “B” indicates a DC50 of greater than or equal to 1 μM and less than 10 μM; and “C” indicates a DC50 of greater than or equal to 10 μM.
`C#Cc1c(F)ccc2cc(O)cc(-c3ncc4c(N5CC6CCC(C5)N6)nc(OCC56CCCN5[C@H](COC(=O)NCCCCCCCCCNc5cccc7c5C(=O)N(C5CCC(=O)NC5=O)C7=O)CC6)nc4c3F)c12` (mixture of isomers) [Compound 023, (3RS,8RS)-[8-[[4-(3,8-Diazabicyclo[3.2.1]octan-3-yl)-7-(8-ethynyl-7-fluoro-3-hydroxy-1-naphthyl)-8-fluoro-pyrido[4,3-d]pyrimidin-2-yl]oxymethyl]-1,2,3,5,6,7-hexahydropyrrolizin-3-yl]methyl N-[9-[[2-(2,6-dioxo-3-piperidyl)-1,3-dioxo-isoindolin-4-yl]amino]nonyl]carbamate]: the DC50 result was “A (DC50 less than 1 μM)”.
On the same count and under the same terms, to `C#Cc1c(F)ccc2cc(O)cc(-c3ncc4c(N5CC6CCC(C5)N6)nc(OC[C@@]56CCCN5[C@H](COC(=O)NCCCc5ccc7c(c5)n(C)c(=O)n7C5CCC(=O)NC5=O)CC6)nc4c3F)c12` (stereo partly drawn) [Compound 001, [(3S,8S)-8-[[4-(3,8-diazabicyclo[3.2.1]octan-3-yl)-7-(8-ethynyl-7-fluoro-3-hydroxy-1-naphthyl)-8-fluoro-pyrido[4,3-d]pyrimidin-2-yl]oxymethyl]-1,2,3,5,6,7-hexahydropyrrolizin-3-yl]methyl N-[3-[1-(2,6-dioxo-3-piperidyl)-3-methyl-2-oxo-benzimidazol-5-yl]propyl]carbamate] belongs “C (DC50 greater than or equal to 10 μM)”; to `C#Cc1c(F)ccc2cc(O)cc(-c3ncc4c(N5CC6CCC(C5)N6)nc(OC[C@@]56CCCN5[C@H](COC(=O)NCCc5ccc7c(c5)n(C)c(=O)n7C5CCC(=O)NC5=O)CC6)nc4c3F)c12` (stereo partly drawn) [Compound 002, [(3S,8S)-8-[[4-(3,8-diazabicyclo[3.2.1]octan-3-yl)-7-(8-ethynyl-7-fluoro-3-hydroxy-1-naphthyl)-8-fluoro-pyrido[4,3-d]pyrimidin-2-yl]oxymethyl]-1,2,3,5,6,7-hexahydropyrrolizin-3-yl]methyl N-[2-[1-(2,6-dioxo-3-piperidyl)-3-methyl-2-oxo-benzimidazol-5-yl]ethyl]carbamate], “C (DC50 greater than or equal to 10 μM)”.
On to `C#Cc1c(F)ccc2cc(O)cc(-c3ncc4c(N5CC6CCC(C5)N6)nc(OC[C@@]56CCCN5[C@H](COC(=O)NCCCc5cccc7c5n(C)c(=O)n7C5CCC(=O)NC5=O)CC6)nc4c3F)c12` (stereo partly drawn) [Compound 003, [(3S,8S)-8-[[4-(3,8-diazabicyclo[3.2.1]octan-3-yl)-7-(8-ethynyl-7-fluoro-3-hydroxy-1-naphthyl)-8-fluoro-pyrido[4,3-d]pyrimidin-2-yl]oxymethyl]-1,2,3,5,6,7-hexahydropyrrolizin-3-yl]methylN-[3-[1-(2,6-dioxo-3-piperidyl)-3-methyl-2-oxo-benzimidazol-4-yl]propyl]carbamate], for which the DC50 result is recorded as “C (DC50 greater than or equal to 10 μM)”.
Take `C#Cc1c(F)ccc2cc(O)cc(-c3ncc4c(N5CC6CCC(C5)N6)nc(OC[C@@]56CCCN5[C@H](COC(=O)NCCc5cccc7c5n(C)c(=O)n7C5CCC(=O)NC5=O)CC6)nc4c3F)c12` (stereo partly drawn) [Compound 004, [(3S,8S)-8-[[4-(3,8-diazabicyclo[3.2.1]octan-3-yl)-7-(8-ethynyl-7-fluoro-3-hydroxy-1-naphthyl)-8-fluoro-pyrido[4,3-d]pyrimidin-2-yl]oxymethyl]-1,2,3,5,6,7-hexahydropyrrolizin-3-yl]methyl N-[2-[1-(2,6-dioxo-3-piperidyl)-3-methyl-2-oxo-benzimidazol-4-yl]ethyl]carbamate]: the DC50 entry is “C (DC50 greater than or equal to 10 μM)”.
Take `C#Cc1c(F)ccc2cc(O)cc(-c3ncc4c(N5CC6CCC(C5)N6)nc(OC[C@@]56CCCN5[C@H](COC(=O)NCCCCCc5ccc7c(c5)n(C)c(=O)n7C5CCC(=O)NC5=O)CC6)nc4c3F)c12` (stereo partly drawn) [Compound 005, [(3S,8S)-8-[[4-(3,8-diazabicyclo[3.2.1]octan-3-yl)-7-(8-ethynyl-7-fluoro-3-hydroxy-1-napht-hyl)-8-fluoro-pyrido[4,3-d]pyrimidin-2-yl]oxymethyl]-1,2,3,5,6,7-hexahydropyrrolizin-3-yl]methyl N-[5-[1-(2,6-dioxo-3-piperidyl)-3-methyl-2-oxo-benzimidazol-5-yl]pentyl]carbamate]: the DC50 entry was “C (DC50 greater than or equal to 10 μM)”.

For the next assay, the target named is T2, KRAS (G12D)-HiBit in AsPc-1-KRAS (G12D)-HiBit-KI cell (Homo sapiens, UniProt P01116, G12D).
T2 construct: host or cells: AsPc-1-KRAS (G12D)-HiBit-KI cells (knock-in line)
T2 sequence (P01116 1-188 isoform P01116-2 G12D): as above
Briefly: G12D HiBit assay. The format is cell-based. The following applies: 24 hours compound treatment, absolute DC50, read-out: Average PHA DC50. The gist of the method: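 Degradation of endogenous HiBiT-tagged KRAS G12D in AsPc-1 knock-in cells read after 24 h compound exposure (0.015-300 nM, 3-fold steps) by Nano-Glo HiBiT lytic luminescence. Signal normalised to DMSO-only cells; absolute DC50 derived by curve fitting.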
(In general: With HiBiT, luminescence reflects the tagged protein that the partner subunit can reach.)
Consider `C#Cc1c(F)ccc2cccc(-c3ncc4c(N5CC6CCC(C5)N6)nc(OC[C@@]56CCCN5[C@H](COC(=O)NCCCC(=O)N5CCN(c7ccc(N8CCC(=O)NC8=O)cc7)CC5)CC6)nc4c3F)c12` [Compound 146, [(3S,8S)-8-[[4-(3,8-diazabicyclo[3.2.1]octan-3-yl)-7-(8-ethynyl-7-fluoro-1-naphthyl)-8-fluoro-pyrido[4,3-d]pyrimidin-2-yl]oxymethyl]-1,2,3,5,6,7-hexahydropyrrolizin-3-yl]methylN-[4-[4-[4-(2,4-dioxohexahydropyrimidin-1-yl)phenyl]piperazin-1-yl]-4-oxo-butyl]carbamate], for which the DC50 is not below 300 nM.
Regarding `C#Cc1c(F)ccc2cccc(-c3ncc4c(N5CC6CCC(C5)N6)nc(OC[C@@]56CCCN5[C@H](COC(=O)NCCCCC(=O)N5CCN(c7ccc(N8CCC(=O)NC8=O)cc7)CC5)CC6)nc4c3F)c12` [Compound 147, [(3S,8S)-8-[[4-(3,8-Diazabicyclo[3.2.1]octan-3-yl)-7-(8-ethynyl-7-fluoro-1-naphthyl)-8-fluoro-pyrido[4,3-d]pyrimidin-2-yl]oxymethyl]-1,2,3,5,6,7-hexahydropyrrolizin-3-yl]methyl N-[5-[4-[4-(2,4-dioxohexahydropyrimidin-1-yl)phenyl]piperazin-1-yl]-5-oxo-pentyl]carbamate], the DC50 is not below 300 nM.
For the molecule `C#Cc1c(F)ccc2cccc(-c3ncc4c(N5CC6CCC(C5)N6)nc(OC[C@@]56CCCN5[C@H](COC(=O)NCCCCCC(=O)N5CCN(c7ccc(N8CCC(=O)NC8=O)cc7)CC5)CC6)nc4c3F)c12` [Compound 148, ((3S,7aS)-7a-(((4-(3,8-Diazabicyclo[3.2.1]octan-3-yl)-7-(8-ethynyl-7-fluoronaphthalen-1-yl)-8-fluoropyrido[4,3-d]pyrimidin-2-yl)oxy)methyl)hexahydro-1H-pyrrolizin-3-yl)methyl(6-(4-(4-(2,4-dioxotetrahydropyrimidin-1(2H)-yl)phenyl)piperazin-1-yl)-6-oxohexyl)carbamate], the DC50 is not below 300 nM.
On the same count and under the same terms, to `C#Cc1c(F)ccc2cccc(-c3ncc4c(N5CC6CCC(C5)N6)nc(OC[C@@]56CCCN5[C@H](COC(=O)NCCCCCCC(=O)N5CCN(c7ccc(N8CCC(=O)NC8=O)cc7)CC5)CC6)nc4c3F)c12` [Compound 149, [(3S,8S)-8-[[4-(3,8-Diazabicyclo[3.2.1]octan-3-yl)-7-(8-ethynyl-7-fluoro-1-naphthyl)-8-fluoro-pyrido[4,3-d]pyrimidin-2-yl]oxymethyl]-1,2,3,5,6,7-hexahydropyrrolizin-3-yl]methyl N-[7-[4-[4-(2,4-dioxohexahydropyrimidin-1-yl)phenyl]piperazin-1-yl]-7-oxo-heptyl]carbamate] belongs not below 300 nM.

The record behind these values is US12404285B2, “KRAS G12D proteolysis targeting chimeras” (PAQ Therapeutics Inc., priority 2022, dated 2025).
